Data set [1] has as its target T1, Transcription intermediary factor 1-alpha (Homo sapiens, UniProt O15164).
T1 sequence (O15164 whole entry): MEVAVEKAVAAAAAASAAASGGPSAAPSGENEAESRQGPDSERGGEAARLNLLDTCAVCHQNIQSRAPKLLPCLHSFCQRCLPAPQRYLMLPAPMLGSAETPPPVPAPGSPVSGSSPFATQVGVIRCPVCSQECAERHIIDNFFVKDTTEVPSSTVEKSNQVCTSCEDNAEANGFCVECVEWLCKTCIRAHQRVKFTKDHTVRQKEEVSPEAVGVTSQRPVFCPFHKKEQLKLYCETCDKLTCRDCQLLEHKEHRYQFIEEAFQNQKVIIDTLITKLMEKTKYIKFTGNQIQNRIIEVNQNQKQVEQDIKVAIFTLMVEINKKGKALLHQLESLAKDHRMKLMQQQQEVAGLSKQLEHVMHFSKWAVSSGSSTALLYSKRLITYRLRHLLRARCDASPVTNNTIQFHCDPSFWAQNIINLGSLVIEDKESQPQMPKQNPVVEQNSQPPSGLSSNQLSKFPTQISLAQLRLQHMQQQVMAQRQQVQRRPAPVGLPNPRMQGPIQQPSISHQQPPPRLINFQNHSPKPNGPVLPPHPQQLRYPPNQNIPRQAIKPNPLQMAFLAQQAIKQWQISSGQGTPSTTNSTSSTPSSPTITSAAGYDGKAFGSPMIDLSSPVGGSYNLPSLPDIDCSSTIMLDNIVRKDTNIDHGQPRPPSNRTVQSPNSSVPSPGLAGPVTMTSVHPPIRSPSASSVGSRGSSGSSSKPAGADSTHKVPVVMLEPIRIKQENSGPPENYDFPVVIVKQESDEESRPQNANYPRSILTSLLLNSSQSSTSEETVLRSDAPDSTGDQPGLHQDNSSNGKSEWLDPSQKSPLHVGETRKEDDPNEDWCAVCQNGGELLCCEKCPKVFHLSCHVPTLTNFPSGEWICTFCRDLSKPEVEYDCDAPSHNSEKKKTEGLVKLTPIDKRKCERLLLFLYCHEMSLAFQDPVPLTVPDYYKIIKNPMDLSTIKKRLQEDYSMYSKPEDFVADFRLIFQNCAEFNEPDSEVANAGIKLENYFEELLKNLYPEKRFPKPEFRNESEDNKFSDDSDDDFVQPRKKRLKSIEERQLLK
Kind of data set: Inhibition of human TRIM24-phd-bromo (P790 to P977 residues) expressed in bacterial expression system by BROMOscan assay.

For data set [2], the target named is T2, Bromodomain and PHD finger-containing protein 3 (Homo sapiens, UniProt Q9ULD4).
T2 sequence (Q9ULD4 whole entry): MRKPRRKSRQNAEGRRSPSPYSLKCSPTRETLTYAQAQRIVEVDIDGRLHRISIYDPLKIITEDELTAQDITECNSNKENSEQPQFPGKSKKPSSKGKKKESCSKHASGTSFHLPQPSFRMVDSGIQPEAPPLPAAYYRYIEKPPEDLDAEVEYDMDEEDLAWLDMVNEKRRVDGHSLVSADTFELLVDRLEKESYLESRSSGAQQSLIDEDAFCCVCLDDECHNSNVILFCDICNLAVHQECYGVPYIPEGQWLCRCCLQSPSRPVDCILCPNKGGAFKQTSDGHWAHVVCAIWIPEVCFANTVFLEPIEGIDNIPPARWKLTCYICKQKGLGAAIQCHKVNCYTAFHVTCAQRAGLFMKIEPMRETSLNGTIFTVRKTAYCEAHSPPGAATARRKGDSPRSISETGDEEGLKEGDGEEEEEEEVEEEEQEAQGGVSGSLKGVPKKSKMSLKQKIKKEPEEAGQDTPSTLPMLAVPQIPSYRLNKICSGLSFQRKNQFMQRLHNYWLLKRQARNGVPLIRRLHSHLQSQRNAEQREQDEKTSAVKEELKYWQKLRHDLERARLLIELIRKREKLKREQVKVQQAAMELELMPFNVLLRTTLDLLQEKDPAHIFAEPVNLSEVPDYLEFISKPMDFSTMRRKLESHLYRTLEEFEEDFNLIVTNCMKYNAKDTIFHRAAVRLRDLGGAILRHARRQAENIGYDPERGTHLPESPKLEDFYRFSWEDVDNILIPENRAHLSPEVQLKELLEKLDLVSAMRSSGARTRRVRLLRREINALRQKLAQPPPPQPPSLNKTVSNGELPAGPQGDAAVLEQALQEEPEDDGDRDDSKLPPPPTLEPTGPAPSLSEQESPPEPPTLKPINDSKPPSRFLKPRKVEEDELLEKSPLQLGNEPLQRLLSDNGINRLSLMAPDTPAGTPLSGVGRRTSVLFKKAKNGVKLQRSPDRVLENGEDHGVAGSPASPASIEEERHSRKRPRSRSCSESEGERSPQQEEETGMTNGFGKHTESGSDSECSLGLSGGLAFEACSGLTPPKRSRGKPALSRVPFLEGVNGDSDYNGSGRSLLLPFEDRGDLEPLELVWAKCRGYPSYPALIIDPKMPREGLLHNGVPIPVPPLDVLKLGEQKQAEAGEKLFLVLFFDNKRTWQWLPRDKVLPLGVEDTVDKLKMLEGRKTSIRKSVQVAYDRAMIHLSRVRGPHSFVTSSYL
In words: Inhibition of human BRPF3 (E588 to G701 residues) expressed in bacterial expression system by BROMOscan assay.

Data set [3] is described as follows: Oral bioavailability in mouse at 10 mg/kg. The format is ADME, organism-based. As to conditions: in vivo.
The target in data set [4] is Bromodomain testis-specific protein (Homo sapiens, UniProt Q58F21). Kind of data set: Binding affinity to BRDT BD1-BD2 (N21 to P380 residues) (unknown origin) after 1 hr by Alexa-647-conjugated probe based TR-FRET assay.

As for `Cc1[nH]c(-c2cc(S(C)(=O)=O)ccc2Oc2ccc(F)cc2F)c2c1C(=O)NCC2`, the IC50 in data set [1] and in data set [2] was over 10 µM in each case. The bioavailability in data set [3] was determined as 32%. Moreover, affinity in data set [4] was put at a Ki of 0.14 µM.
As to `Cc1[nH]c(-c2cc(NS(C)(=O)=O)ccc2Oc2ccccc2)c2c1C(=O)CCC2`, the IC50 in data set [1] and in data set [2] was over 10 µM each time. Besides, the bioavailability in data set [3] is 30%. In addition, in data set [4], the affinity, expressed as Ki, was 0.11 µM.
On to `Cn1cc(-c2cc(S(C)(=O)=O)ccc2Oc2ccc(F)cc2F)c2cc[nH]c(=O)c21`, for which the IC50 in data set [1] was 10 µM; in data set [2] it was over 10 µM. This compound also registered a bioavailability in data set [3] of 57%. This compound also had a Ki in data set [4] of 0.49 µM.

Values taken from ChEMBL document CHEMBL4038268, “Methylpyrrole inhibitors of BET bromodomains” (Bioorg Med Chem Lett, 2017).
